Our source for the EC50 and IC50 values is patent publication US6087334A, “Anti-diabetic peptides” (Amylin Pharmaceuticals, Inc., priority 1998, dated 2000).

Where a SMILES comes first, the peptide text is derived from it. Bridges are numbered along the chain shown (N, C = ends). The star is where a group is joined. Pentanoyl(4-Me) = CC(C)CCC(=O)*

Test [1] deals with T1, C1a receptor (C1a-type calcitonin receptor) (Rattus norvegicus, UniProt P32214).
T1 construct: expressed in transfected cells
T1 sequence (P32214 25-479 isoform P32214-2 limits assumed): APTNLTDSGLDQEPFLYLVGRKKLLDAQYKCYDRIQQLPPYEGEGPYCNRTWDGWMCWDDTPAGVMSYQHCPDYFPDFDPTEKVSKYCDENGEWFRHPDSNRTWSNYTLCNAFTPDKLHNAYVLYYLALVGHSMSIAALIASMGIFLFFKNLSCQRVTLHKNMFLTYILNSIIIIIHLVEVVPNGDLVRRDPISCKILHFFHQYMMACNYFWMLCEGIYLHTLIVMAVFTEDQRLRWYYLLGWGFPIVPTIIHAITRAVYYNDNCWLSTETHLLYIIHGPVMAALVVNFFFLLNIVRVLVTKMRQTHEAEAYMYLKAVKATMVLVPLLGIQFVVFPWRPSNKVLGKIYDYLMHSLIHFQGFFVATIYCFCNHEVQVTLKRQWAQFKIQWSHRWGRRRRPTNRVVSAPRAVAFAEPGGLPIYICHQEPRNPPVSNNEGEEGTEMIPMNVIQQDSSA
Briefly: biochemical. To be noted: HEK293 plasma membranes, [35S]-GTPγS 200 pM; read-out: ED50 (nM) Example B (C1a GTPγS). The text has this:
Peptide compounds of the present invention may be evaluated for agonist activity using the procedures described in Example B. The plasma membrane preparation of a 7-transmembrane-G-protein coupled receptor (GPCR) contains not only the receptor but also the G-proteins which constitute the first step in the intracellular signal transduction process when the receptor is activated by an agonist ligand. […] Agonist activation of a GPCR is accompanied by displacement of GDP by GTP from this site. Thus, measurement of the binding of a radiolabelled ligand, namely [^35 S]-GTPγS, for this binding site constitutes a measure of agonist potency for a given ligand. For agonism at the C1a receptor, a similar membrane preparation to that described below for the C1a binding studies is used. C1a pcDNA construction and transfection were carried out as previously described (Albrandt et al. 1993, FEBS Letters, 325:225-232). HEK293 cell lines showing stable expression of the rat C1a-type calcitonin receptor (C1a/293) or the human C1a-type calcitonin receptor (1154/293) were selected by G418 resistance and limiting dilution culture methods. Plasma membranes were collected from homogenized HEK293 cells and used in the [^35 S]-GTPγS assay. Individual test peptides at concentrations spanning 6 log units starting at around […] were examined for their ability to bind [^35 S]-GTPγS. Maximum agonist-specific binding was measured in the presence of 1 μM human calcitonin, constitutive binding was measured in the presence of buffer alone. Peptide potencies (EC50 's for concentration response curves) were calculated by non-linear regression using Prism™ (version 2.01, GraphPAD Software, San Diego, Calif.).
[^35 S]-GTPγS C1a Agonist Studies
Evaluation of the agonist activity of compounds versus the C1a receptor was carried out as follows:
(§1) Reference peptides used in these studies were purchased from Bachem (Torrance, Calif.). All other chemicals were of the highest commercial grade. [^35 S]-GTPγS was purchased from NEN Life Science Products, Inc., Pittsburgh, Pa. [^125 I]-human calcitonin was purchased from Amersham Pharmacia Biotech, Inc., Piscataway, N.J.
Methods for C1a pcDNA construction and transfection have been previously described (Albrandt, et al. 1993, FEBS Letters, 325:225-232). HEK293 cell lines stably expressing the rat C1a-type calcitonin receptor (C1a/293) or the human C1a-type calcitonin receptor (1154/293) were selected by G418 resistance and limiting dilution culture methods.
(§2) Confluent cells were detached from tissue culture flasks by incubation with 5 mM EDTA in PBS. Cells were homogenized in ice-cold 20 mM HEPES, pH 7.4 with a Polytron homogenizer. Plasma membranes were collected using three cycles of washing in fresh buffer followed by centrifugation for 15 minutes at 48,000×g. The final membrane pellet was resuspended in 20 mM HEPES buffer containing 0.2 mM phenylmethylsulfonyl fluoride (PMSF) and stored at -70° C.
Assay buffer contained 1 μM GDP, 1 mM EDTA, 5 mM MgCl2, 20 mM Hepes, and 150 mM NaCl, pH 7.4. Membranes (7.5 μg membrane protein/well), [^35 S]-GTPγS (200 pM), and peptides were combined in 200 μL buffer in 96-well microtiter plates. After a 75 minute incubation at room temperature, well contents were harvested onto GF/B glass fiber pads using a Tomtec Mach II plate harvestor (Hamden, Conn.). Dried pads were combined with scintillant and counted on a Wallac LKB Beta Plate scintillation counter. For concentration response curves, samples were run in duplicate over a 6 log concentration range starting at 10^-6 M or 10^-7 M. Maximum agonist-specific binding was measured in the presence of 1 μM human calcitonin, constitutive binding was measured in the presence of buffer alone.
Peptide potencies (1C50 's for competitive binding, and EC50 's for concentration response curves) were calculated by non-linear regression using Prism (version 2.01, GraphPAD Software, San Diego, Calif.).
For orientation: Binding of GTPγS marks nucleotide exchange on a G protein.

In test [2] the target is T1, C1a receptor (C1a-type calcitonin receptor). Briefly: C1a/293 competitive binding, displacement of [125I]-human calcitonin (Example C). To be noted: HEK293 plasma membranes (C1a/293), [125I]-human calcitonin 20 pM. The protocol:
Peptide compounds of the present invention may be evaluated for binding to the C1a receptor using the procedures described in Example C. The C1a receptor is the predominant mammalian calcitonin receptor subtype. C1a pcDNA construction and transfection were carried out as previously described (Albrandt et al. 1993, FEBS Letters, 325:225-232). HEK293 cell lines showing stable expression of the rat C1a-type calcitonin receptor (C1a/293) or the human C1a-type calcitonin receptor (1154/293) were selected by G418 resistance and limiting dilution culture methods. Plasma membranes were collected from homogenized HEK293 cells and used in the receptor binding assay. Individual test peptides at concentrations spanning 6 log units starting at around 10^-6 M were examined for their ability to displace [^125 I]-human calcitonin from the plasma membrane preparation using a 96-well microtiter plate format and scintillation counting with a Wallac LKB Beta plate counter. Competitive binding curves were constructed. Non-specific binding was measured in the presence of 100 nM calcitonin. Peptide potencies (IC50 's for competitive binding) were calculated by non-linear regression using Prism™ (version 2.01, GraphPAD Software, San Diego, Calif.).
C1a/293 Competitive Binding Studies:
Compounds were evaluated for competition in binding to the C1a receptor as follows:
as §1
Methods for C1a pcDNA construction and transfection have been previously described (Albrandt, et al. 1993). HEK293 cell lines stably expressing the rat C1a-type calcitonin receptor (C1a/293) or the human C1a-type calcitonin receptor (1154/293) were selected by G418 resistance and limiting dilution culture methods.
as §2
Assay buffer contained 5 μg/mL bestatin, 1 μg/mL phosphoramidon, 1 mg/mL bovine serum albumin (fraction V), 1 mg/mL bacitracin, 1 mM MgCl2, and 20 mM HEPES, pH 7.4. Membranes (2-5 μg membrane protein/well), [^125 I]-human calcitonin (20 pM), and peptides were combined in 200 μL buffer in 96-well microtiter plates. After a 60 minute incubation at room temperature, well contents were harvested onto polyethyleneimine-treated GF/B glass fiber pads using a Tomtec Mach II plate harvestor (Hamden, Conn.). Dried pads were combined with scintillant and counted on a Wallac LKB Beta Plate scintillation counter (Gaithersburg, Md.). For competitive binding curves, samples were run in duplicate over a 6 log concentration range starting at 10^-6 or 10^-7 M. Non-specific binding was measured in the presence of 100 nM human calcitonin.

In the case of `CC(C)C[C@H](NC(=O)[C@H](CCCNC(=N)N)NC(=O)[C@H](CCC(N)=O)NC(=O)[C@@H](NC(=O)[C@H](C)NC(=O)[C@@H]1CSSC[C@H](NC(=O)[C@@H](N)CCCCN)C(=O)N[C@@H](CC(N)=O)C(=O)N[C@@H](C(C)C)C(=O)N[C@@H](C)C(=O)N[C@@H]([C@@H](C)O)C(=O)N1)[C@@H](C)O)C(=O)N[C@@H](C)C(=O)N[C@@H](CC(N)=O)C(=O)N[C@@H](Cc1ccccc1)C(=O)N[C@@H](CC(C)C)C(=O)N[C@H](C(=O)N[C@@H](CCCNC(=N)N)C(=O)N[C@@H](CO)C(=O)N[C@@H](CO)C(=O)NCC(=O)N[C@@H](Cc1ccc(O)cc1)C(N)=O)C(C)C` [Example 2] (H-KCNVATCATQRLANFLVRSSGY-NH2; disulfide 2-7), the EC50 in test [1] stood at 2.6 nM. The IC50 in test [2] was determined as 0.128 nM.

`CC(C)CCC(=O)N[C@@H](CC(C)C)C(=O)N[C@@H](CO)C(=O)N[C@H](C(=O)N[C@@H](C)C(=O)N[C@@H](C)C(=O)N[C@H](C(=O)N[C@@H](C)C(=O)N[C@@H](CCCNC(=N)N)C(=O)N[C@@H](CC(C)C)C(=O)N[C@@H](C)C(=O)N[C@@H](C)C(=O)N[C@@H](Cc1ccccc1)C(=O)N[C@@H](CC(C)C)C(=O)N[C@@H](C)C(=O)N[C@@H](CCCNC(=N)N)C(=O)N[C@@H](CO)C(N)=O)[C@@H](C)O)[C@@H](C)O` [Example 4] ({Pentanoyl(4-Me)}-LSTAATARLAAFLARS-NH2): in test [1], the EC50 was 0.73 nM. For the same compound, the IC50 in test [2] stood at 0.66 nM.

For `CC(C)C[C@H](NC(=O)[C@H](CCCNC(=N)N)NC(=O)[C@H](C)NC(=O)[C@@H](NC(=O)[C@H](C)NC(=O)[C@@H]1CSSC[C@H](N)C(=O)N[C@@H](CC(N)=O)C(=O)N[C@@H]([C@@H](C)O)C(=O)N[C@@H](C)C(=O)N[C@@H]([C@@H](C)O)C(=O)N1)[C@@H](C)O)C(=O)N[C@@H](C)C(=O)N[C@@H](C)C(=O)N[C@@H](Cc1ccccc1)C(=O)N[C@@H](CC(C)C)C(=O)N[C@@H](C)C(=O)N[C@@H](CCCNC(=N)N)C(N)=O` [Example 7] (H-CNTATCATARLAAFLAR-NH2; disulfide 1-6), the EC50 in test [1] stood at 2.2 nM. Also, in test [2], the 50% inhibitory concentration (IC50) is 2.7 nM.

Consider `CC(C)C[C@H](NC(=O)[C@H](CCCNC(=N)N)NC(=O)[C@H](CCC(N)=O)NC(=O)[C@@H](NC(=O)[C@H](C)NC(=O)[C@@H]1CSSC[C@H](NC(=O)[C@@H](N)CCCCN)C(=O)N[C@@H](CC(N)=O)C(=O)N[C@@H]([C@@H](C)O)C(=O)N[C@@H](C)C(=O)N[C@@H]([C@@H](C)O)C(=O)N1)[C@@H](C)O)C(=O)N[C@@H](C)C(=O)N[C@@H](C)C(=O)N[C@@H](Cc1ccccc1)C(=O)N[C@@H](CC(C)C)C(=O)N[C@H](C(=O)N[C@@H](CCCNC(=N)N)C(=O)N[C@@H](CO)C(=O)N[C@@H](CO)C(=O)NCC(=O)N[C@@H](Cc1ccc(O)cc1)C(N)=O)C(C)C` [Example 8] (H-KCNTATCATQRLAAFLVRSSGY-NH2; disulfide 2-7), for which the EC50 in test [1] was determined as 4.4 nM. Further, the half-inhibitory concentration (IC50) in test [2] was found to be 3.4 nM.

On to `CC(C)C[C@H](NC(=O)[C@H](CCCNC(=N)N)NC(=O)[C@H](CCC(N)=O)NC(=O)[C@@H](NC(=O)[C@H](C)NC(=O)[C@@H]1CSSC[C@H](NC(=O)[C@@H](N)CCCCN)C(=O)N[C@@H](CC(N)=O)C(=O)N[C@@H]([C@@H](C)O)C(=O)N[C@@H](C)C(=O)N[C@@H]([C@@H](C)O)C(=O)N1)[C@@H](C)O)C(=O)N[C@@H](C)C(=O)N[C@@H](CC(N)=O)C(=O)N[C@@H](Cc1ccccc1)C(=O)N[C@@H](CC(C)C)C(=O)N[C@H](C(=O)N[C@@H](CCCNC(=N)N)C(=O)N[C@@H](CO)C(=O)NCC(=O)N[C@@H](Cc1ccc(O)cc1)C(N)=O)C(C)C` [Example 9] (H-KCNTATCATQRLANFLVRSGY-NH2; disulfide 2-7), for which the EC50 in test [1] was 8.6 nM. The IC50 in test [2] came to 4.1 nM.

Consider `CC(C)C[C@H](NC(=O)[C@H](CCCNC(=N)N)NC(=O)[C@H](CCC(N)=O)NC(=O)[C@@H](NC(=O)[C@H](C)NC(=O)[C@@H]1CSSC[C@H](NC(=O)[C@@H](N)CCCCN)C(=O)N[C@@H](CC(N)=O)C(=O)N[C@@H]([C@@H](C)O)C(=O)N[C@@H](C)C(=O)N[C@@H]([C@@H](C)O)C(=O)N1)[C@@H](C)O)C(=O)N[C@@H](C)C(=O)N[C@@H](CC(N)=O)C(=O)N[C@@H](Cc1ccccc1)C(=O)N[C@@H](CC(C)C)C(=O)N[C@H](C(=O)N[C@@H](CCCNC(=N)N)C(=O)N[C@@H](C)C(=O)N[C@@H](CO)C(=O)NCC(=O)N[C@@H](Cc1ccc(O)cc1)C(N)=O)C(C)C` [Example 10] (H-KCNTATCATQRLANFLVRASGY-NH2; disulfide 2-7), for which the EC50 in test [1] is 8 nM. In test [2], the IC50 was 4.7 nM.

The term IC50 denotes the concentration at which inhibition is half-maximal.
